Reference: ChEMBL document CHEMBL3621115, “Discovery of 6-phenylimidazo[2,1-b]thiazole derivatives as a new type of FLT3 inhibitors” (Bioorg Med Chem Lett, 2015)
The source made the active and inactive calls. The calls are words filed in the database; no cut-off is given here.

What was measured:
SH-SY5Y = experiment: Cytotoxicity against human SH-SY5Y cells assessed as cell viability after 72 hrs by MTT assay; assay type: functional, cell-based
[1] = biological target: Platelet-derived growth factor receptor alpha (Homo sapiens, UniProt P16234); experiment: Inhibition of human recombinant PDGFRalpha
[2] = biological target: Serine/threonine-protein kinase PAK 4 (Homo sapiens, UniProt O96013); experiment: Inhibition of human recombinant PAK4
[3] = biological target: Receptor-type tyrosine-protein kinase FLT3 (Homo sapiens) (UniProt P36888); experiment: Inhibition of FLT3 in human MV4-11 cells assessed as down regulation of STAT5 phosphorylation at >0.001 uM after 6 hrs by Western blotting analysis; assay type: cell-based
[4] = biological target: Mitogen-activated protein kinase 10 (Homo sapiens, UniProt P53779); experiment: Inhibition of human recombinant JNK3
[5] = biological target: Fibroblast growth factor receptor 2 (Homo sapiens, UniProt P21802); experiment: Inhibition of human recombinant FGFR2
HeLa = experiment: Cytotoxicity against human HeLa cells assessed as cell viability after 72 hrs by MTT assay; assay type: functional, cell-based
[6] = biological target: Tyrosine-protein kinase Fes/Fps (Homo sapiens, UniProt P07332); experiment: Inhibition of human recombinant Fes
A2058 = experiment: Cytotoxicity against human A2058 cells assessed as cell viability after 72 hrs by MTT assay; assay type: functional, cell-based; conditions: A2058, 72 h
[7] = biological target: Serine/threonine-protein kinase Chk1 (Homo sapiens, UniProt O14757); experiment: Inhibition of human recombinant CHK1
[8] = biological target: Tyrosine-protein kinase receptor UFO (Homo sapiens, UniProt P30530); experiment: Inhibition of human recombinant Axl
MDA-MB-435 = experiment: Cytotoxicity against human MDA-MB-435 cells assessed as cell viability after 72 hrs by MTT assay; assay type: functional, cell-based; conditions: MDA-MB-435, 72 h
CWR22R = experiment: Cytotoxicity against human 22Rv1 cells assessed as cell viability after 72 hrs by MTT assay; assay type: functional, cell-based; conditions: 22Rv1, 72 h
HCT-116 = experiment: Cytotoxicity against human HCT116 cells assessed as cell viability after 72 hrs by MTT assay; assay type: functional, cell-based; conditions: HCT-116, 72 h
HepG2 = experiment: Cytotoxicity against human HepG2 cells assessed as cell viability after 72 hrs by MTT assay; assay type: functional, cell-based; conditions: HepG2, 72 h
Raji = experiment: Cytotoxicity against human Raji cells assessed as cell viability after 72 hrs by MTT assay; assay type: functional, cell-based
[9] = biological target: Insulin-like growth factor 1 receptor (Homo sapiens, UniProt P08069); experiment: Inhibition of human recombinant IGF-1R
HT-29 = experiment: Cytotoxicity against human HT-29 cells assessed as cell viability after 72 hrs by MTT assay; assay type: functional, cell-based; conditions: HT-29, 72 h
MDA-MB-157 = experiment: Cytotoxicity against human MDA-MB-157 cells assessed as cell viability after 72 hrs by MTT assay; assay type: functional, cell-based; conditions: MDA-MB-157, 72 h
[10] = biological target: Serine/threonine-protein kinase PLK1 (Homo sapiens, UniProt P53350); experiment: Inhibition of human recombinant Plk1
[11] = biological target: Tyrosine-protein kinase BTK (Homo sapiens, UniProt Q06187); experiment: Inhibition of human recombinant BTK
[12] = biological target: Serine/threonine-protein kinase/endoribonuclease IRE1 (Homo sapiens, UniProt O75460); experiment: Inhibition of human recombinant IRE1
U-251 = experiment: Cytotoxicity against human U251 cells assessed as cell viability after 72 hrs by MTT assay; assay type: functional, cell-based; conditions: U-251, 72 h
MV4-11 = experiment: Cytotoxicity against human MV4-11 cells assessed as cell viability after 72 hrs by MTT assay; assay type: functional, cell-based; conditions: MV4-11, 72 h
[13] = biological target: Dual specificity mitogen-activated protein kinase kinase 1 (Homo sapiens, UniProt Q02750); experiment: Inhibition of human recombinant MEK1
[14] = biological target: Proto-oncogene tyrosine-protein kinase receptor Ret (Homo sapiens, UniProt P07949); experiment: Inhibition of human recombinant Ret
A549 = experiment: Cytotoxicity against human A549 cells assessed as cell viability after 72 hrs by MTT assay; assay type: functional, cell-based; conditions: A549, 72 h
[15] = biological target: Tyrosine-protein kinase JAK3 (Homo sapiens, UniProt P52333); experiment: Inhibition of human recombinant JAK3
BT-474 = experiment: Cytotoxicity against human BT474 cells assessed as cell viability after 72 hrs by MTT assay; assay type: functional, cell-based; conditions: BT-474, 72 h
[16] = Cytotoxicity against human PC9 cells assessed as cell viability after 72 hrs by MTT assay; assay type: functional, cell-based; conditions: PC-9, 72 h
[17] = biological target: Cyclin-dependent kinase 2 (Homo sapiens, UniProt P24941); experiment: Inhibition of human recombinant CDK2
A-375 = experiment: Cytotoxicity against human A375 cells assessed as cell viability after 72 hrs by MTT assay; assay type: functional, cell-based; conditions: A-375, 72 h
[18] = biological target: BDNF/NT-3 growth factors receptor (Homo sapiens, UniProt Q16620); experiment: Inhibition of human recombinant TrkB
[19] = Cytotoxicity against human SKHEP1 cells assessed as cell viability after 72 hrs by MTT assay; assay type: functional, cell-based; conditions: SK-HEP1, 72 h
[20] = biological target: Mast/stem cell growth factor receptor Kit (Homo sapiens, UniProt P10721); experiment: Inhibition of human recombinant ckit
[21] = Cytotoxicity against human DLD1 cells assessed as cell viability after 72 hrs by MTT assay; assay type: functional, cell-based; conditions: DLD-1, 72 h
[22] = biological target: Receptor-type tyrosine-protein kinase FLT3 (Homo sapiens) (UniProt P36888); experiment: Inhibition of FLT3 in human MV4-11 cells assessed as down regulation of ERK1/2 phosphorylation at >0.001 uM after 6 hrs by Western blotting analysis; assay type: cell-based
[23] = Cytotoxicity against human KYSE-150 cells assessed as cell viability after 72 hrs by MTT assay; assay type: functional, cell-based; conditions: KYSE-150, 72 h
[24] = Cytotoxicity against human SKBR3 cells assessed as cell viability after 72 hrs by MTT assay; assay type: functional, cell-based; conditions: SK-BR-3, 72 h
[25] = biological target: Vascular endothelial growth factor receptor 3 (Homo sapiens, UniProt P35916); experiment: Inhibition of human recombinant Flt4
Jurkat = experiment: Cytotoxicity against human Jurkat cells assessed as cell viability after 72 hrs by MTT assay; assay type: functional, cell-based
[26] = biological target: Macrophage colony-stimulating factor 1 receptor (Homo sapiens, UniProt P07333); experiment: Inhibition of human recombinant Fms
[27] = biological target: Vascular endothelial growth factor receptor 2 (Homo sapiens, UniProt P35968); experiment: Inhibition of human recombinant KDR
[28] = biological target: 5'-AMP-activated protein kinase catalytic subunit alpha-1 (Homo sapiens, UniProt Q13131); experiment: Inhibition of human recombinant AMPKalpha1
Aurora kinase A = Aurora kinase A (Homo sapiens, UniProt O14965); experiment: Inhibition of human recombinant Aurora-A
Ephrin type-B receptor 2 = Ephrin type-B receptor 2 (Homo sapiens, UniProt P29323); experiment: Inhibition of human recombinant EphB2
[29] = biological target: Tyrosine-protein kinase Fyn (Homo sapiens, UniProt P06241); experiment: Inhibition of human recombinant Fyn
[30] = biological target: Tyrosine-protein kinase ABL2 (Homo sapiens, UniProt P42684); experiment: Inhibition of human recombinant Arg
[31] = biological target: RAF proto-oncogene serine/threonine-protein kinase (Homo sapiens, UniProt P04049); experiment: Inhibition of human recombinant c-RAF

Chain of Receptor-type tyrosine-protein kinase FLT3 (Homo sapiens) (P36888 whole entry): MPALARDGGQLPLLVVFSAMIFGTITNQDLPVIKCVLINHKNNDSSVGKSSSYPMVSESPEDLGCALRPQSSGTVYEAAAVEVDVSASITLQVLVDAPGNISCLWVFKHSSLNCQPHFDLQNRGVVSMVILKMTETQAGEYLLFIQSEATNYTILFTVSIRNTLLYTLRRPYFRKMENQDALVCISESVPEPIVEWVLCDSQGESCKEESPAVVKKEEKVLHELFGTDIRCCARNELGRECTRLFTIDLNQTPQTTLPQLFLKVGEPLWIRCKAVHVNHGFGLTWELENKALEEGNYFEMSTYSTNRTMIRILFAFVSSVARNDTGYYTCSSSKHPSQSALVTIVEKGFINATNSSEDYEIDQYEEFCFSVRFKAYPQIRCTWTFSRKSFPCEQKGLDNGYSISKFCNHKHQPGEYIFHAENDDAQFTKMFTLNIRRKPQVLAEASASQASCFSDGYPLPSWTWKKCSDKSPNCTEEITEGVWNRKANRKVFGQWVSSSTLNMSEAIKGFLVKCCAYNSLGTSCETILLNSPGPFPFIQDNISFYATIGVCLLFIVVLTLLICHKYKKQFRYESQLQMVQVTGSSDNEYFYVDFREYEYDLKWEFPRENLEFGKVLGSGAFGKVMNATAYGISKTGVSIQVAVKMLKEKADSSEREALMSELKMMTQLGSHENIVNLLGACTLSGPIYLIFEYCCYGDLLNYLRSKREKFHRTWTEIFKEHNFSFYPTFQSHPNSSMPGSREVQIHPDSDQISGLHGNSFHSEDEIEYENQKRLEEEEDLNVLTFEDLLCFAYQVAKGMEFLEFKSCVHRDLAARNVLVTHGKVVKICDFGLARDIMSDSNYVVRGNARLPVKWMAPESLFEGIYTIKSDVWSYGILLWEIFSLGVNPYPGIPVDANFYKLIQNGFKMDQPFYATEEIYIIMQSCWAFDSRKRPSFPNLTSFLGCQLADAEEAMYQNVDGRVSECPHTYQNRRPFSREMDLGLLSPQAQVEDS
Chain of Platelet-derived growth factor receptor alpha (P16234 whole entry): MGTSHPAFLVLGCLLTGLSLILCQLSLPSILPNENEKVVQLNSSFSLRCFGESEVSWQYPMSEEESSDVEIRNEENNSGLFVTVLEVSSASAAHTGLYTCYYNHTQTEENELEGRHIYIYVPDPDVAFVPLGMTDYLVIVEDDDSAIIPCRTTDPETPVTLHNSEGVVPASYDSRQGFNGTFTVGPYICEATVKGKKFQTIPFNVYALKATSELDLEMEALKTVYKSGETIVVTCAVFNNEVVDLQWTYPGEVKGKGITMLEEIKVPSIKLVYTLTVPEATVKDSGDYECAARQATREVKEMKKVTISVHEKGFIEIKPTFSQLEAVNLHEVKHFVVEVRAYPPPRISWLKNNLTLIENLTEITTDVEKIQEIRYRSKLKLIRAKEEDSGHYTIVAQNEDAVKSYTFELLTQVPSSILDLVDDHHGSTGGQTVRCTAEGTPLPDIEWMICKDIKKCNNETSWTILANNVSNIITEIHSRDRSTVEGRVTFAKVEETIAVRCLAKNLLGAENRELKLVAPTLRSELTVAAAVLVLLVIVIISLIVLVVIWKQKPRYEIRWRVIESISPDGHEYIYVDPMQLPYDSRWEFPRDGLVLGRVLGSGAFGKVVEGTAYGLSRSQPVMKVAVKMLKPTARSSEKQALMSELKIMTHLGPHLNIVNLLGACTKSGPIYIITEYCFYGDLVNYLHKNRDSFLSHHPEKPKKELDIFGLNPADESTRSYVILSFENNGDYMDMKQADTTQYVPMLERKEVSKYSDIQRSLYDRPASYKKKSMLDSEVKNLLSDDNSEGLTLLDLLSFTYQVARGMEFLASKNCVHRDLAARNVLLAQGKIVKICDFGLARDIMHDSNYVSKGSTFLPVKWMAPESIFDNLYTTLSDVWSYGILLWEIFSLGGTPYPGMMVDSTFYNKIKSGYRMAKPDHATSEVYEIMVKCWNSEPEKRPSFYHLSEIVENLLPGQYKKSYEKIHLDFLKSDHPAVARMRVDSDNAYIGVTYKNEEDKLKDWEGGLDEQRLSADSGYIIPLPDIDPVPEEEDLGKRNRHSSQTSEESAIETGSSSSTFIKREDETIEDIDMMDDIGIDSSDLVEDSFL
Chain of Tyrosine-protein kinase JAK3 (P52333 whole entry): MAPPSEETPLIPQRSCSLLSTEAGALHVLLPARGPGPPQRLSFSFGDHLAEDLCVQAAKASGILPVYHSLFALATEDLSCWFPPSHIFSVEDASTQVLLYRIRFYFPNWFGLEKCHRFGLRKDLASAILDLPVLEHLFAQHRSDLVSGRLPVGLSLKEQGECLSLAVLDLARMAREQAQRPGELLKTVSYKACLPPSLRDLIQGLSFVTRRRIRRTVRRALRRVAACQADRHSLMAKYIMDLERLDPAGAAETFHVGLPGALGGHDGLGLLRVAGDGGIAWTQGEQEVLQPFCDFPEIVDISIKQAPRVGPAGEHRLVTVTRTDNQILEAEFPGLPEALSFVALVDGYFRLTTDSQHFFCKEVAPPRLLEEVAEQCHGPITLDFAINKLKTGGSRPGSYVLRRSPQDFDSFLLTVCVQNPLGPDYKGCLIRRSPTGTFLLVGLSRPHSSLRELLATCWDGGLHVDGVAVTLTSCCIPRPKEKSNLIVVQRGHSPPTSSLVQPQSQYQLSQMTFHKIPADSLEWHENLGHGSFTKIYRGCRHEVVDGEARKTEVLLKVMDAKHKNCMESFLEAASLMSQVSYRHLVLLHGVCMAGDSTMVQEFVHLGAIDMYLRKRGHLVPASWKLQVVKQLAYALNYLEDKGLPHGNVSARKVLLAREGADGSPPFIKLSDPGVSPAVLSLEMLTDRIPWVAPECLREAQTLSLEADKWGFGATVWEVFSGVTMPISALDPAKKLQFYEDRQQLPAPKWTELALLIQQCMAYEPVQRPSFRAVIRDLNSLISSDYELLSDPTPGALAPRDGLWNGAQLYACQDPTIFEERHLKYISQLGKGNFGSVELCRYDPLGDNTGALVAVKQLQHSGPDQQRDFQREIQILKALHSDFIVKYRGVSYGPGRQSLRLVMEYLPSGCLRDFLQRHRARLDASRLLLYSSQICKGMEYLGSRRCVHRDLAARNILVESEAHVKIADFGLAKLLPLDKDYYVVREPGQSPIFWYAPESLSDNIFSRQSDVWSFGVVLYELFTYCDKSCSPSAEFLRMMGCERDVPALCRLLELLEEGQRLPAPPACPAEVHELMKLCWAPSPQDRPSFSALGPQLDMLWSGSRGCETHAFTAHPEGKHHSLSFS
Chain of 5'-AMP-activated protein kinase catalytic subunit alpha-1 (Q13131 whole entry): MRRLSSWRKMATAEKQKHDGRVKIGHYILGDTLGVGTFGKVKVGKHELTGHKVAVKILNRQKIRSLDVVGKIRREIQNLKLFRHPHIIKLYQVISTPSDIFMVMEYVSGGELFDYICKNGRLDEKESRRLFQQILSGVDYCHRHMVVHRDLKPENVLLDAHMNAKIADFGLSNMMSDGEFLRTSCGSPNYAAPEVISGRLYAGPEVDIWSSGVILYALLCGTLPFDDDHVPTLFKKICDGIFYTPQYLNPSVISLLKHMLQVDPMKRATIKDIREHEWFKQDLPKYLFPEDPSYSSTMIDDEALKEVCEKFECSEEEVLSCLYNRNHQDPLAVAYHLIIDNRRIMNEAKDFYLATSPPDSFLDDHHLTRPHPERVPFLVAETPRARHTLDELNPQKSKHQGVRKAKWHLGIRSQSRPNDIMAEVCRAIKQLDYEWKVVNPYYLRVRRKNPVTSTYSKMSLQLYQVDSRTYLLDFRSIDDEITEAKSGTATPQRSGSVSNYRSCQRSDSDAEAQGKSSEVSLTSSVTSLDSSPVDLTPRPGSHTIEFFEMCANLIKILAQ
Chain of BDNF/NT-3 growth factors receptor (Q16620 whole entry): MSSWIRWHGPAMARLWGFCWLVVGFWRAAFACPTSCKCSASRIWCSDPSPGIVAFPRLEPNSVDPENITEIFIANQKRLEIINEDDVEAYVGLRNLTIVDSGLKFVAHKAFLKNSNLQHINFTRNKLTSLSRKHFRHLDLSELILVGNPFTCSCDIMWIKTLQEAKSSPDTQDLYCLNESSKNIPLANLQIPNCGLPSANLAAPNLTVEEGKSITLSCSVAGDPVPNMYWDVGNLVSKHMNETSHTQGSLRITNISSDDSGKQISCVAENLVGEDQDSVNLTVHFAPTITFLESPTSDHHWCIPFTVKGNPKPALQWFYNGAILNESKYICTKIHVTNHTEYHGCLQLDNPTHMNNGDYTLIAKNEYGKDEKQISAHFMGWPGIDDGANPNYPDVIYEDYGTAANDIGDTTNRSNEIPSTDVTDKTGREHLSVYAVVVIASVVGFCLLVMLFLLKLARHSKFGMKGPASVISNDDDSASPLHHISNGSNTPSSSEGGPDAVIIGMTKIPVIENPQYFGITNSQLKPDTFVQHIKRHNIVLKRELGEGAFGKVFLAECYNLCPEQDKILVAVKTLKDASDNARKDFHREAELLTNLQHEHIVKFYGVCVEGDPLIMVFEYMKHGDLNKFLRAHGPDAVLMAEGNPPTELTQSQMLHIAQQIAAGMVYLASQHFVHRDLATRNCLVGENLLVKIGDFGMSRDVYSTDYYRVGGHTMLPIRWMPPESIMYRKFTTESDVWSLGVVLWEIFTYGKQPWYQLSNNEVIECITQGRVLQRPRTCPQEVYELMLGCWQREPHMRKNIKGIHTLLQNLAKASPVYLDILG
Chain of Aurora kinase A (O14965 whole entry): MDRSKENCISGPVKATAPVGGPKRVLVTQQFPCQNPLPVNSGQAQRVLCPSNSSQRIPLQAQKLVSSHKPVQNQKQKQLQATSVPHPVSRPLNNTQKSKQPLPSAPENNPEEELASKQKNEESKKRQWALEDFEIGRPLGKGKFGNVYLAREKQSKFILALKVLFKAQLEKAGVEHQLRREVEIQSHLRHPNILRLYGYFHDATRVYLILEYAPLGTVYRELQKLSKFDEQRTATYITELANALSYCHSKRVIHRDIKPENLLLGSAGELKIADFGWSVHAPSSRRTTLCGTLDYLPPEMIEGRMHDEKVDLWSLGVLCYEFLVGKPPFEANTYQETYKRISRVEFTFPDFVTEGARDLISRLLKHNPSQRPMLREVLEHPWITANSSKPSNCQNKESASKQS

In the case of `CN(C)CCCNC(=O)c1csc2nc(-c3ccc(NC(=O)Nc4cc(C(C)(C)C)on4)cc3)cn12`, the IC50 (SH-SY5Y) is reported as 3.3 µM, the IC50 [1] is reported as 0.37 µM and the IC50 [2] is reported as > 10 µM. For the same compound, the inhibition [3] was “Active”, the IC50 [4] was > 10 µM and the IC50 [5] was > 10 µM. For the same compound, the IC50 (HeLa) was 20 µM, the IC50 [6] was > 10 µM and the IC50 (A2058) was 10 µM. The IC50 [7] was > 10 µM, the IC50 [8] was > 10 µM and the IC50 (MDA-MB-435) was > 10 µM. The IC50 (CWR22R) was > 10 µM, the IC50 (HCT-116) was 10 µM and the IC50 (HepG2) was 10 µM. The IC50 (Raji) was > 10 µM, the IC50 [9] was > 10 µM and the IC50 (HT-29) was 10 µM. For the same compound, the IC50 (MDA-MB-157) was > 10 µM, the IC50 [10] was > 10 µM and the IC50 [11] was > 10 µM. For the same compound, the IC50 [12] was > 10 µM, the IC50 (U-251) was > 10 µM and the IC50 (MV4-11) was 0.002 µM. The IC50 [13] was > 10 µM, the IC50 [14] was 0.986 µM and the IC50 (A549) was 10 µM. The IC50 [15] was > 10 µM, the IC50 (BT-474) was 10 µM and the IC50 [16] was > 10 µM. The IC50 [17] was > 10 µM, the IC50 (A-375) was 10 µM and the IC50 [18] was > 10 µM. For the same compound, the IC50 [19] was 10 µM, the IC50 [20] was 0.294 µM and the IC50 [21] was 10 µM. The inhibition [22] was “Active”, the IC50 [23] was > 10 µM and the IC50 [24] was 10 µM. For the same compound, the IC50 [25] was 1.19 µM, the IC50 (Jurkat) was 10 µM and the IC50 [26] was 0.043 µM. For the same compound, the IC50 [27] was 2.46 µM, the IC50 [28] was > 10 µM and the IC50 (Aurora kinase A) was > 10 µM. The IC50 (Ephrin type-B receptor 2) was > 10 µM, the IC50 [29] was > 10 µM and the IC50 [30] was > 10 µM. For the same compound, the IC50 [31] was > 10 µM.
